Reference: ChEMBL document CHEMBL4507315 (2021)
Activity calls are given as the source filed them. The rule behind the calls is not given here.

Experiments:
Rattus norvegicus = organism: Rattus norvegicus; conditions: Compound concentration 10.0 uM
[1] = tested on: Mast/stem cell growth factor receptor Kit (Homo sapiens), P10721 [A829P]; conditions: Compound concentration 100.0 nM
[2] = biological target: Mitogen-activated protein kinase 15 (Homo sapiens) (UniProt Q8TD08); conditions: Compound concentration 100.0 nM
[3] = biological target: Rhodopsin kinase GRK1 (Homo sapiens) (UniProt Q15835); conditions: Compound concentration 100.0 nM
[4] = biological target: Dual specificity tyrosine-phosphorylation-regulated kinase 2 (Homo sapiens) (UniProt Q92630); conditions: Compound concentration 100.0 nM
[5] = biological target: Macrophage colony-stimulating factor 1 receptor (Homo sapiens) (UniProt P07333); conditions: Compound concentration 100.0 nM
[6] = biological target: Alpha-2C adrenergic receptor (Homo sapiens) (UniProt P18825); conditions: Compound concentration 10.0 uM
[7] = biological target: Cyclin-dependent kinase 14 (Homo sapiens) (UniProt O94921); conditions: Compound concentration 100.0 nM
Chain of Cyclin-dependent kinase 14 (Homo sapiens) (O94921 whole entry): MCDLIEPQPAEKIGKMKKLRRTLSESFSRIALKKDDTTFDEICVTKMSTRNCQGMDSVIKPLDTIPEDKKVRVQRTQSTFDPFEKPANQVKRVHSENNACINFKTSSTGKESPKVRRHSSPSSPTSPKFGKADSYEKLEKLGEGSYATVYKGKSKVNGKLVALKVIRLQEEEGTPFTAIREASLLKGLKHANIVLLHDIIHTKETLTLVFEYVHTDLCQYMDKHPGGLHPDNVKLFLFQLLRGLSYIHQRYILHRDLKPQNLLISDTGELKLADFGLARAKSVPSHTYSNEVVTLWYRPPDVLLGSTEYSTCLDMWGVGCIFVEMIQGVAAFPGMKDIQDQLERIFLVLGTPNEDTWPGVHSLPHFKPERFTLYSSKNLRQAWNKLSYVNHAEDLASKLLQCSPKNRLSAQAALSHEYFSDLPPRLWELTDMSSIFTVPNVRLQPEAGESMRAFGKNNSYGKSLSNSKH

[8] = biological target: Cyclin-dependent kinase 4 (Homo sapiens) (UniProt P11802); conditions: Compound concentration 100.0 nM
Chain of Cyclin-dependent kinase 4 (Homo sapiens) (P11802 whole entry, the tested form may be a part): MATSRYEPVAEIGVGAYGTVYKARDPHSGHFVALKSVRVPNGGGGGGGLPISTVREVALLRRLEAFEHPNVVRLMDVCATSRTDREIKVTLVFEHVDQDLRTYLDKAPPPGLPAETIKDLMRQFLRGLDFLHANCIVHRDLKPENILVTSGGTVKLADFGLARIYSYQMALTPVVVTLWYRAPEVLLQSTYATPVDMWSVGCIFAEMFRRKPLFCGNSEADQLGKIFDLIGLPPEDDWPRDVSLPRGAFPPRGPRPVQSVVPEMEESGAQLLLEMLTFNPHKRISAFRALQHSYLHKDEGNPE

[9] = biological target: Discoidin domain-containing receptor 2 (Homo sapiens) (UniProt Q16832); conditions: Compound concentration 100.0 nM
[10] = biological target: Wee1-like protein kinase (Homo sapiens) (UniProt P30291); conditions: Compound concentration 100.0 nM
Chain of Wee1-like protein kinase (Homo sapiens) (P30291 whole entry, looked up): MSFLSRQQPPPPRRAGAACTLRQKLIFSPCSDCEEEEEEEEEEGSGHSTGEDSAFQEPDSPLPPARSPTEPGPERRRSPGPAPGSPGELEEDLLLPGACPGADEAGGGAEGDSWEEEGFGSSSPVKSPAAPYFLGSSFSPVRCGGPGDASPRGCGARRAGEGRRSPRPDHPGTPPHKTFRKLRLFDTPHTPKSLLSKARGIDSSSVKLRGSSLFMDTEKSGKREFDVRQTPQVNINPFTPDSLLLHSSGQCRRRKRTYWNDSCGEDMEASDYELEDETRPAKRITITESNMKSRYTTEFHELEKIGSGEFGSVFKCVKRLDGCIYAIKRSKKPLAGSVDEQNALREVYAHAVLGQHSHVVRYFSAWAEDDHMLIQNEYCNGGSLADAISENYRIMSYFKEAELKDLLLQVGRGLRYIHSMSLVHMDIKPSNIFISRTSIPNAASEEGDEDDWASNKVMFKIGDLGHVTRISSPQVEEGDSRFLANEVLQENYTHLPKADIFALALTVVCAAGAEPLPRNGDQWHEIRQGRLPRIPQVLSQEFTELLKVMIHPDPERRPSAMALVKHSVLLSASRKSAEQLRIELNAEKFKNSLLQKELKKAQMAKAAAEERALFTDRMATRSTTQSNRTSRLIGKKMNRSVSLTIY

[11] = biological target: Serine/threonine-protein kinase B-raf (Homo sapiens) (UniProt P15056); conditions: Compound concentration 100.0 nM
[12] = biological target: Tyrosine-protein kinase Fyn (Homo sapiens) (UniProt P06241); conditions: Compound concentration 100.0 nM
[13] = biological target: Muscarinic acetylcholine receptor M4 (Homo sapiens) (UniProt P08173); conditions: Compound concentration 10.0 uM
[14] = biological target: Cyclin-dependent kinase-like 3 (Homo sapiens) (UniProt Q8IVW4); conditions: Compound concentration 100.0 nM
[15] = biological target: Serine/threonine-protein kinase WNK2 (Homo sapiens) (UniProt Q9Y3S1); conditions: Compound concentration 100.0 nM
Chain of Serine/threonine-protein kinase WNK2 (Homo sapiens) (Q9Y3S1 whole entry): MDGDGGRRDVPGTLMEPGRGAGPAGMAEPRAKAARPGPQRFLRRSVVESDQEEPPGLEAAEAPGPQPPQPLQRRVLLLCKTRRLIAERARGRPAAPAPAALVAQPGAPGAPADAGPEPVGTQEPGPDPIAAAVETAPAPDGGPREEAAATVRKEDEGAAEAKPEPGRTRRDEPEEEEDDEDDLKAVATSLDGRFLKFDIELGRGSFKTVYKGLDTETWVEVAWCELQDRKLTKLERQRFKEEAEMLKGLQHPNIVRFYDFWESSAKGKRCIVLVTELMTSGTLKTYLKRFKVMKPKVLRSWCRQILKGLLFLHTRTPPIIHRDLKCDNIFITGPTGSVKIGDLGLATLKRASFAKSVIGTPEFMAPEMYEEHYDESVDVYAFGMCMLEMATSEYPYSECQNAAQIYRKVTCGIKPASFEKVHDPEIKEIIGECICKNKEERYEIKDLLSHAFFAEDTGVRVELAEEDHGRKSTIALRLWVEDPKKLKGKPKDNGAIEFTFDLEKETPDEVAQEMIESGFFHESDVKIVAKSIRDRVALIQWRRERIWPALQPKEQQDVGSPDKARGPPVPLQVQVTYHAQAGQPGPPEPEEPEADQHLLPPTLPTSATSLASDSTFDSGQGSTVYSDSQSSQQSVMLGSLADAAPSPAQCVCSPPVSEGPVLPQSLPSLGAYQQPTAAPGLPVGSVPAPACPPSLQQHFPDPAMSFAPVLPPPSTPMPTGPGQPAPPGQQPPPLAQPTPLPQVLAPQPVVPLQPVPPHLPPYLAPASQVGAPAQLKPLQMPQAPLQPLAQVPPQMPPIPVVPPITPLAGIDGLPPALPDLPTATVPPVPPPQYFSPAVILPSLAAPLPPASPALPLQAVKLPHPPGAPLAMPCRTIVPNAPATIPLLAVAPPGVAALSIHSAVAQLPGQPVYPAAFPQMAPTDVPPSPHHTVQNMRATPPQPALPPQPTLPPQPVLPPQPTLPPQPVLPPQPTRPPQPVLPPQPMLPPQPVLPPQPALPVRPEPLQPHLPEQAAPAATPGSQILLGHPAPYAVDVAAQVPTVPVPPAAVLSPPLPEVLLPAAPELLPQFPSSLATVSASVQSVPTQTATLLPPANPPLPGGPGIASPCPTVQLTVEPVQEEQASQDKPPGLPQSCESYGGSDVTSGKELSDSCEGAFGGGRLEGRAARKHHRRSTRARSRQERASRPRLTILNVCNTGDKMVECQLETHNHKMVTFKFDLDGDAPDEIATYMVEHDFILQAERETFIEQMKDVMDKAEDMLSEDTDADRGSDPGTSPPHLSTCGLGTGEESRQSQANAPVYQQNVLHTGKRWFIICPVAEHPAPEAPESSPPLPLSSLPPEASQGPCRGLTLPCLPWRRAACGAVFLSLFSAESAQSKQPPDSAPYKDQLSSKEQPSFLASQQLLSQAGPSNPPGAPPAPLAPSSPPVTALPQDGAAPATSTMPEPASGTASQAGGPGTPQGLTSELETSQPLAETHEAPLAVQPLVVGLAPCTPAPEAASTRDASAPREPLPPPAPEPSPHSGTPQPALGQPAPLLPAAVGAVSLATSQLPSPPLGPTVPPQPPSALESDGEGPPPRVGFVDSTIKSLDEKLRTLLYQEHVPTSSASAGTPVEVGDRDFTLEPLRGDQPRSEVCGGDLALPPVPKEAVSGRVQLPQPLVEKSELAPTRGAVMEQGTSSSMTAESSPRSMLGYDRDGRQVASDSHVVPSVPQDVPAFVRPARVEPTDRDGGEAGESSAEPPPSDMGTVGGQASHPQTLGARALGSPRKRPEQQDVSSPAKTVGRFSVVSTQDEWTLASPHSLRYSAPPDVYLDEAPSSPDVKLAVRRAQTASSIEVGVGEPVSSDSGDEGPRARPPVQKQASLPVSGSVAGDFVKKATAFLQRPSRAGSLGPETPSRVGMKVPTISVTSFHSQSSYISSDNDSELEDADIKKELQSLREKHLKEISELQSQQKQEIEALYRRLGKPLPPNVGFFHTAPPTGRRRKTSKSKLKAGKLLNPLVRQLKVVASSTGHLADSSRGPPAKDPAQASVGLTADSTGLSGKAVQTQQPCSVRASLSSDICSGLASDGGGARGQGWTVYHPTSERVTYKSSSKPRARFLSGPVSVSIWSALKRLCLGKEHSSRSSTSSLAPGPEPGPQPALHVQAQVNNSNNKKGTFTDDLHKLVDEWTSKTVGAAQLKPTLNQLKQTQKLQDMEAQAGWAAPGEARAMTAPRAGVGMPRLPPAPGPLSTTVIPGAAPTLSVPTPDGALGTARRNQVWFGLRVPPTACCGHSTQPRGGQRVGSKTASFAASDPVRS

[16] = biological target: Wee1-like protein kinase 2 (Homo sapiens) (UniProt P0C1S8); conditions: Compound concentration 100.0 nM
Chain of Wee1-like protein kinase 2 (Homo sapiens) (P0C1S8 whole entry, looked up): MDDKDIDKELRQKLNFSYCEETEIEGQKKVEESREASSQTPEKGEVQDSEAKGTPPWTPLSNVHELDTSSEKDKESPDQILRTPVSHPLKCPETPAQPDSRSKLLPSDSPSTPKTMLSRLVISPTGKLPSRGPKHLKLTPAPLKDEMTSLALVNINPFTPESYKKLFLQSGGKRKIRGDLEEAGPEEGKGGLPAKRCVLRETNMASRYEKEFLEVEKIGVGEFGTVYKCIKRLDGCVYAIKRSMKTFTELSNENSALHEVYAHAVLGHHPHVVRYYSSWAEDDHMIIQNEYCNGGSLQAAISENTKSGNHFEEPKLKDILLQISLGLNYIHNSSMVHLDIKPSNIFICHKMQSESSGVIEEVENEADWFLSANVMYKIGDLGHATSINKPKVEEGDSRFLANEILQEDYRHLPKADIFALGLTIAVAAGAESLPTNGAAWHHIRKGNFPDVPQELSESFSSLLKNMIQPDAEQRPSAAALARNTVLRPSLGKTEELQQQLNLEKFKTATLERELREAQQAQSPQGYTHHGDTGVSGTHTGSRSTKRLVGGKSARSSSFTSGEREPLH

[17] = biological target: Heat shock protein beta-1 (Homo sapiens, UniProt P04792); experiment: Inhibition of HSP27 (Ser82) (Western blot)
[18] = biological target: Mitogen-activated protein kinase 14 (Homo sapiens) (UniProt Q16539); conditions: Compound concentration 100.0 nM
[19] = biological target: Muscarinic acetylcholine receptor M5 (Homo sapiens) (UniProt P08912); conditions: Compound concentration 10.0 uM
[20] = biological target: D(4) dopamine receptor (Homo sapiens) (UniProt P21917); conditions: Compound concentration 10.0 uM
[21] = biological target: Histamine H2 receptor (Homo sapiens) (UniProt P25021); conditions: Compound concentration 10.0 uM
Histamine H1 receptor = Histamine H1 receptor (Homo sapiens, UniProt P35367); experiment: GPCRScan assay: inhibition of H1; parameters: radioligand conc. used [nm] 0.6 – 2.0, parental cells stable HEK
Chain of Histamine H1 receptor (P35367 whole entry): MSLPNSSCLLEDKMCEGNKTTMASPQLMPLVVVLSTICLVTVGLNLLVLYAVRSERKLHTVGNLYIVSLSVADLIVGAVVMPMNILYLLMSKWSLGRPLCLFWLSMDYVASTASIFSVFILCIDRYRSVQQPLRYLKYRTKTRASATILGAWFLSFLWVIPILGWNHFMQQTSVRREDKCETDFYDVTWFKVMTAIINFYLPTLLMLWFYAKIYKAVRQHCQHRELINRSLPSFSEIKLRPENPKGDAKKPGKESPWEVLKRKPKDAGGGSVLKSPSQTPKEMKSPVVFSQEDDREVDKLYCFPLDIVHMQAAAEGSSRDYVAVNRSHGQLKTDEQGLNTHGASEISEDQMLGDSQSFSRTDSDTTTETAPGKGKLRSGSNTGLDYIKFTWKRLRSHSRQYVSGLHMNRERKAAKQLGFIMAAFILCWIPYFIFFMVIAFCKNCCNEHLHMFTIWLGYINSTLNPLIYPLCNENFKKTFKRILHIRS

[22] = biological target: Sigma intracellular receptor 2 (Homo sapiens, UniProt Q5BJF2); experiment: GPCRScan assay: inhibition of Sigma 2; parameters: radioligand conc. used [nm] 5.0, parental cells HEKT
Chain of Sigma intracellular receptor 2 (Q5BJF2 whole entry): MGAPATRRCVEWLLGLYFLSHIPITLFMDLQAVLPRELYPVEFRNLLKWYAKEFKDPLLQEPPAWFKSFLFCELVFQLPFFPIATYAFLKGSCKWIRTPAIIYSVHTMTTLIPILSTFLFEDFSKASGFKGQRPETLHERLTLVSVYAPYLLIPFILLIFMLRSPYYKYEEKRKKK

[23] = biological target: Kappa-type opioid receptor (Homo sapiens, UniProt P41145); experiment: GPCRScan assay: inhibition of KOR; parameters: radioligand conc. used [nm] 0.6 – 1.2, parental cells stable HEK

Row | SMILES | residual activity [1] [%] | residual activity [2] [%] | residual activity [3] [%] | residual activity [4] [%] | residual activity [5] [%] | inhibition [6] [%] | residual activity [7] [%] | residual activity [8] [%] | residual activity [9] [%] | residual activity [10] [%] | residual activity [11] [%] | residual activity [12] [%] | inhibition [13] [%] | residual activity [14] [%] | residual activity [15] [%] | residual activity [16] [%] | also measured
1 | Nc1c(C(=O)NCc2ccc(C(=O)NCCCC3CCCCC3)cc2)cnn1-c1ccccc1 [SR-318] | 100 | 100 | 100 | 97 | 91 | 18.1 | 100 | 100 | 56 | 100 | 90 | 100 | -4.14 | 97 | 100 | 100 | inhibition (Rattus norvegicus): 27.6%; IC50 [17]: < 1000 nM (active)
2 | O=C(NCCCC1CCCCC1)c1ccc(CNC(=O)c2cnn(-c3ccccc3)c2C(F)(F)F)cc1 [SR-321] | 100 | 100 | 94 | 100 | 100 | 3.68 | 100 | 96 | 100 | 97 | 100 | 86 | 20.1 | 100 | 100 | 100 | residual activity [18]: 100%; inhibition [19]: -4.46%; inhibition [20]: 21.7%; inhibition [21]: -2.78%; Ki (Histamine H1 receptor): > 10000 nM; pKi (Histamine H1 receptor): < 5; Ki ([22]; read-out: Ki): 2890 nM; Ki ([22]; read-out: pKi (converted)): 2820 nM; Ki [23]: > 10000 nM; pKi [23]: < 5
